Laboratory results as given in US11286243B2 (GLOBAL BLOOD THERAPEUTICS, INC., priority 2018, dated 2022).

target: T1, human ferroportin (Homo sapiens, UniProt Q9NP59); assay: In-vitro ferroportin internalization assay (luciferase reporter); format: cell-based; conditions: average pEC50; stably-transfected CHO cell line expressing human ferroportin tagged to a luciferase reporter; 6 h incubation with test compounds
T1 construct: luciferase reporter (probably NanoLuc: read with the Nano-Glo Luciferase Assay System); expressed in transfected cells; host or cells: CHO cells, stably transfected, doxycycline-inducible expression
T1 sequence (Q9NP59 1-571): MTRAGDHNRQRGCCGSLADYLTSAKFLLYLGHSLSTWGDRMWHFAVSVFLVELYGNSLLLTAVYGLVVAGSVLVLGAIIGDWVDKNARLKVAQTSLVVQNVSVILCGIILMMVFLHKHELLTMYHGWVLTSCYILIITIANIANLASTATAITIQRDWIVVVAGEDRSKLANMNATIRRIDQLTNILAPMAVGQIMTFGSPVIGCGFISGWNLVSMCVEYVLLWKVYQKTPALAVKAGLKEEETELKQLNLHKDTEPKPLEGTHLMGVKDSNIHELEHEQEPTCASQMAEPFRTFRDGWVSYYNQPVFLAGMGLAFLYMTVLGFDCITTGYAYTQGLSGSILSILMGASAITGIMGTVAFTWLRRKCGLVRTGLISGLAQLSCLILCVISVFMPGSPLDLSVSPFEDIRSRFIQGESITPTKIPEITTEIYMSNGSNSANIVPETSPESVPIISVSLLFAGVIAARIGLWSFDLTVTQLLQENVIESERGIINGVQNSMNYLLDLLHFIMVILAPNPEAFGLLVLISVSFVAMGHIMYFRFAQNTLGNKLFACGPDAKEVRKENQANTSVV
Method: The protocol for this assay is generally as described in WO2018/128828, incorporated herein by reference in its entirety. Functional internalization of ferroportin protein was measured using a stably-transfected CHO cell line expressing the human ferroportin tagged to a luciferase reporter. Cells were plated for 24 h in the presence of ferric ammonium citrate (FAC). Ferroportin protein expression was induced with doxycycline for 24 h. The next day, the compounds were added. Test compounds were dissolved in DMSO. Cells were incubated with the test compounds for 6 h, and subsequently luciferase activity was measured using the Nano-Glo Luciferase Assay System and Glomax (Promega, Madison, Wis.).
The average pEC50 was determined for the test compounds.

SMILES	pEC50
C[C@@H](Cc1nc2c(NCc3ncccc3F)ncnc2s1)NCCc1nc2ccccc2[nH]1 [Compound 28, 2-[(2S)-2-{[2-(1H-1,3-benzodiazol-2-yl)ethyl]amino}propyl]-N-[(3-fluoropyridin-2-yl)methyl]-[1,3]thiazolo[5,4-d]pyrimidin-7-amine]	6.3
CC(=O)NOc1nc(NCc2ncccc2F)c2nc(CCNCCc3nc4ccccc4[nH]3)sc2n1 [Compound 29, N-{[2-(2-{[2-(1H-1,3-benzodiazol-2-yl)ethyl]amino}ethyl)-7-{[(3-fluoropyridin-2-yl)methyl]amino}-[1,3]thiazolo[5,4-d]pyrimidin-5-yl]oxy}acetamide]	5.2
Fc1cccnc1CNc1ncnc2sc(C(F)CNCCc3nc4ccccc4[nH]3)nc12 (centres unmarked) [Compound 30, 2-(2-{[2-(1H-1,3-benzodiazol-2-yl)ethyl]amino}-1-fluoroethyl)-N-[(3-fluoropyridin-2-yl)methyl]-[1,3]thiazolo[5,4-d]pyrimidin-7-amine]	7.3
Cc1nc(NCc2ncccc2F)c2nc(CCNCCc3nc4ccccc4[nH]3)sc2n1 [Compound 31, 2-(2-{[2-(1H-1,3-benzodiazol-2-yl)ethyl]amino}ethyl)-N-[(3-fluoropyridin-2-yl)methyl]-5-methyl-[1,3]thiazolo[5,4-d]pyrimidin-7-amine]	5.6
[N-]=[N+]=Nc1cccnc1CNc1ncnc2sc(CCNCCc3nc4cc(I)ccc4[nH]3)nc12 [Compound 32, N-[(3-azidopyridin-2-yl)methyl]-2-(2-{[2-(5-iodo-1H-1,3-benzodiazol-2-yl)ethyl]amino}ethyl)-[1,3]thiazolo[5,4-d]pyrimidin-7-amine]	6.9
Fc1cccnc1CNc1ncnc2sc(CCNCCc3nc4ncccc4[nH]3)nc12 [Compound 33, N-[(3-fluoropyridin-2-yl)methyl]-2-{2-[(2-{1H-imidazo[4,5-b]pyridin-2-yl}ethyl)amino]ethyl}-[1,3]thiazolo[5,4-d]pyrimidin-7-amine]	6.2
O=c1c2ccccc2[nH]n1CCNCCc1nc2c(NCc3ncccc3F)ncnc2s1 [Compound 34, 2-(2-{[2-(7-{[(3-fluoropyridin-2-yl)methyl]amino}-[1,3]thiazolo[5,4-d]pyrimidin-2-yl)ethyl]amino}ethyl)-2,3-dihydro-1H-indazol-3-one]	5.1
Fc1cccnc1CNc1ncnc2sc(CCNCCc3ncc(-c4ccccc4)[nH]3)nc12 [Compound 35, N-[(3-fluoropyridin-2-yl)methyl]-2-(2-{[2-(5-phenyl-1H-imidazol-2-yl)ethyl]amino}ethyl)-[1,3]thiazolo[5,4-d]pyrimidin-7-amine]	7.1
Oc1nc(NCc2ncccc2F)c2nc(CCNCCc3nc4ccccc4[nH]3)oc2n1 [Compound 36, 2-(2-{[2-(1H-1,3-benzodiazol-2-yl)ethyl]amino}ethyl)-7-{[(3-fluoropyridin-2-yl)methyl]amino}-[1,3]oxazolo[5,4-d]pyrimidin-5-ol]	6.4
Fc1cccnc1CNc1ncnc2sc(CCNCCc3nc4cnccc4[nH]3)nc12 [Compound 37, N-[(3-fluoropyridin-2-yl)methyl]-2-{2-[(2-{1H-imidazo[4,5-c]pyridin-2-yl}ethyl)amino]ethyl}-[1,3]thiazolo[5,4-d]pyrimidin-7-amine]	5.6
CC(NCCc1nc2c(NCc3ncccc3F)ncnc2s1)c1ccccc1O (centres unmarked) [Compound 38, 2-(1-{[2-(7-{[(3-fluoropyridin-2-yl)methyl]amino}-[1,3]thiazolo[5,4-d]pyrimidin-2-yl)ethyl]amino}ethyl)phenol]	4.9
C#CCCC1(CCC(=O)NCc2ccc3[nH]c(CCNCCc4nc5c(NCc6ncccc6F)ncnc5s4)nc3c2)N=N1 [Compound 39, 3-[3-(but-3-yn-1-yl)-3H-diazirin-3-yl]-N-{[2-(2-{[2-(7-{[(3-fluoropyridin-2-yl)methyl]amino}-[1,3]thiazolo[5,4-d]pyrimidin-2-yl)ethyl]amino}ethyl)-1H-1,3-benzodiazol-5-yl]methyl}propanamide]	6.9
CC(Cc1nc2ccccc2[nH]1)NCCc1nc2c(NCc3ncccc3F)ncnc2s1 (centres unmarked) [Compound 40, 2-(2-{[1-(1H-1,3-benzodiazol-2-yl)propan-2-yl]amino}ethyl)-N-[(3-fluoropyridin-2-yl)methyl]-[1,3]thiazolo[5,4-d]pyrimidin-7-amine]	6.2
CC(CNCCc1nc2c(NCc3ncccc3F)ncnc2s1)c1nc2ccccc2[nH]1 (centres unmarked) [Compound 41, 2-(2-{[2-(1H-1,3-benzodiazol-2-yl)propyl]amino}ethyl)-N-[(3-fluoropyridin-2-yl)methyl]-[1,3]thiazolo[5,4-d]pyrimidin-7-amine]	7.2
Fc1cccnc1CNc1ncnc2sc(CCNCCc3ncc[nH]3)nc12 [Compound 42, N-[(3-fluoropyridin-2-yl)methyl]-2-(2-{[2-(1H-imidazol-2-yl)ethyl]amino}ethyl)-[1,3]thiazolo[5,4-d]pyrimidin-7-amine]	7.3
Fc1cccnc1CNc1ncnc2sc(CCNCCc3ncc(Cc4ccccc4)[nH]3)nc12 [Compound 43, 2-(2-{[2-(5-benzyl-1H-imidazol-2-yl)ethyl]amino}ethyl)-N-[(3-fluoropyridin-2-yl)methyl]-[1,3]thiazolo[5,4-d]pyrimidin-7-amine]	8.4

The remaining lines, values ahead:

pEC50	SMILES
4.9	Oc1ccccc1CCNCCc1nc2c(NCc3ncccc3F)ncnc2s1 [Compound 44, 2-(2-{[2-(7-{[(3-fluoropyridin-2-yl)methyl]amino}-[1,3]thiazolo[5,4-d]pyrimidin-2-yl)ethyl]amino}ethyl)phenol]
6.4	Fc1cccnc1CNc1ncnc2sc(CCNCC(F)c3nc4ccccc4[nH]3)nc12 (centres unmarked) [Compound 45, 2-(2-{[2-(1H-1,3-benzodiazol-2-yl)-2-fluoroethyl]amino}ethyl)-N-[(3-fluoropyridin-2-yl)methyl]-[1,3]thiazolo[5,4-d]pyrimidin-7-amine]
7.1	Cc1cc2nc(CCNCCc3nc4c(NCc5ncccc5F)ncnc4s3)[nH]c2cc1C [Compound 46, 2-(2-{[2-(5,6-dimethyl-1H-1,3-benzodiazol-2-yl)ethyl]amino}ethyl)-N-[(3-fluoropyridin-2-yl)methyl]-[1,3]thiazolo[5,4-d]pyrimidin-7-amine]
5.8	O=C(CCC1(CCc2cn(CCCNC(=O)c3ccc4c(c3)C3(OC4=O)c4ccc(O)cc4Oc4cc(O)ccc43)nn2)N=N1)Nc1ccc2[nH]c(CCNCCc3nc4c(NCc5ncccc5F)ncnc4s3)nc2c1 [Compound 47, N-[3-(4-{2-[3-(2-{[2-(2-{[2-(7-{[(3-fluoropyridin-2-yl)methyl]amino}-[1,3]thiazolo[5,4-d]pyrimidin-2-yl)ethyl]amino}ethyl)-1H-1,3-benzodiazol-5-yl]carbamoyl}ethyl)-3H-diazirin-3-yl]ethyl}-1H-1,2,3-triazol-1-yl)propyl]-3′,6′-dihydroxy-3-oxo-3H-spiro[2-benzofuran-1,9′-xanthene]-6-carboxamide]
7	Fc1cccnc1CNc1nccc2oc(CCNCCc3ncc(-c4ccccc4)[nH]3)nc12 [Compound 48, N-[(3-fluoropyridin-2-yl)methyl]-2-(2-{[2-(5-phenyl-1H-imidazol-2-yl)ethyl]amino}ethyl)-[1,3]oxazolo[4,5-c]pyridin-4-amine]
6.9	Fc1cccnc1CNc1ncnc2sc(CCNCc3nc(-c4ccccc4)c[nH]3)nc12 [Compound 49, N-[(3-fluoropyridin-2-yl)methyl]-2-(2-{[(4-phenyl-1H-imidazol-2-yl)methyl]amino}ethyl)-[1,3]thiazolo[5,4-d]pyrimidin-7-amine]
5.1	OC(CNCCc1nc2c(NCc3ncccc3F)ncnc2s1)c1nc2ccccc2[nH]1 (centres unmarked) [Compound 50, 1-(1H-1,3-benzodiazol-2-yl)-2-{[2-(7-{[(3-fluoropyridin-2-yl)methyl]amino}-[1,3]thiazolo[5,4-d]pyrimidin-2-yl)ethyl]amino}ethan-1-ol]
8.2	Fc1cccnc1CNc1ncnc2sc(CCNCCc3ncc(C4CC4)[nH]3)nc12 [Compound 51, 2-(2-{[2-(5-cyclopropyl-1H-imidazol-2-yl)ethyl]amino}ethyl)-N-[(3-fluoropyridin-2-yl)methyl]-[1,3]thiazolo[5,4-d]pyrimidin-7-amine]
6.6	C[C@H](CNCCc1nc2c(NCc3ncccc3F)ncnc2s1)c1nc2ccccc2[nH]1 [Compound 52, 2-(2-{[(2R)-2-(1H-1,3-benzodiazol-2-yl)propyl]amino}ethyl)-N-[(3-fluoropyridin-2-yl)methyl]-[1,3]thiazolo[5,4-d]pyrimidin-7-amine]
7.3	C[C@@H](CNCCc1nc2c(NCc3ncccc3F)ncnc2s1)c1nc2ccccc2[nH]1 [Compound 53, 2-(2-{[(2S)-2-(1H-1,3-benzodiazol-2-yl)propyl]amino}ethyl)-N-[(3-fluoropyridin-2-yl)methyl]-[1,3]thiazolo[5,4-d]pyrimidin-7-amine]
